Reference: US20180203025A1, “HDL THERAPY MARKERS” (Cerenis Therapeutics Holding SA, priority 2014, published 2018)

Tests used:
J774 macrophages = assay: Cytotoxicity in J774 efflux study; assay type: cell-based, mouse; settings: Study N; 30 mM; 6 hours
Procedure: J774 were seeded on 24 well plates (60,000 cells/well) and loaded with ^3H-cholesterol oxidized-LDL in DMEM 2.5% FCS. After a 24 hour equilibration (DMEM), β-cyclodextrin (0.03, 0.1, 0.3, 1, 3, 10 and 30 mM) was added for 6 hours. The percentage of efflux, assayed using the protocol of Section 8.3.6, is determined as: Medium DPM/(Medium DPM+Cell DPM)*100.

[1] = system: carotid artery and aorta vessel wall; assay: SAMBA trial: mean vessel wall thickness by 3Tesla MRI; assay type: in vivo, human
Procedure: The patients were initially treated in an intense “induction phase,” receiving 9 doses of CER-001 at a dose of 8 mg/kg over 4 weeks. After this induction phase, the study subjects were re-evaluated with lipoprotein profiles and an MRI scan. Subsequently, the study subjects continued to be treated once every two weeks in a “maintenance phase” for 6 months' total therapy. At that point the lipoprotein profiles and MRI scans were repeated.
FIG. 70 and FIG. 71 show the mean carotic and aortic vessel wall thickness, respectively, on a patient-by-patient basis after one month of treatment. Mean vessel wall thickness of the carotid artery decreased by a mean of −6.4% after one month of induction therapy, and mean vessel wall thickness of the aorta decreased by a mean of −4.6% after one month of induction therapy. The homozygous ApoA-I deficiency patient experienced a −17% regression of carotid mean vessel wall thickness. […] Mean vessel wall thickness was determined by 3Tesla MRI.

[2] = CHI SQUARE plasma ApoA-I, phospholipid and total cholesterol after infusion; assay type: in vivo, human
Description: 504 subjects presenting with acute chest pain or other angina equivalent symptoms, indicative of a diagnosis of ST segment elevation myocardial infarction, non-ST elevation myocardial infarction or unstable angina were enrolled. To be eligible, subjects must have angiographic evidence of coronary artery disease as defined by at least one lesion in any of the three major native coronary arteries that has >20% reduction in lumen diameter by angiographic visual estimation or prior history of percutaneous coronary intervention (“PCI”). The target vessel for PCI was not the target coronary artery for research IVUS, and any vessel with previous PCI could not be used as the target coronary artery.

[3] = system: ligatured carotid from apoE−/− mice; assay: Cholesterol content of ligatured left carotids, apoE−/− mice on high fat diet; assay type: in vivo, mouse; settings: 8 injections
Procedure: The formulation was injected in the retro-orbital vein (50 μL/mouse) of mice anaesthetized with isoflurane, once every 2 days for 8 injections. The dose administered was based on the mean of mice bodyweight in each cage. The compounds were injected at 10 AM every day. For blood sampling, mice fasted overnight were sampled once at the indicated dose: (1) at predose (at 9 AM) by retro-orbital withdrawal: 24 hours before the first injection/day of surgery; (2) at postdose (at 9 AM) by retro-orbital withdrawal: 24 hours after the last injection; and (3) at t=0 (9 AM) and the indicated time points after the 5th injection by caudal withdrawal. Immediately after collection, blood samples were kept at ca. +4° C. to avoid alteration of the blood sample. Blood specimens were centrifuged (800×g for 10 minutes at +4° C.) and plasma was saved for future analysis.
This study examined the effect of CER-001 administration on plaque progression in ligatured carotid from apoE^−/− mice fed with a high fat diet. For each group of mice, the cholesterol content of the carotid was tested after lipid extraction and HPLC analysis. The ligatured carotids were collected the day of sacrifice and stored at −80° C. The lipids were extracted with an organic solution and the cholesterol concentration was determined by HPLC.
Ligatured carotids were lipid extracted according to the method of Section 9.2.9. The surgical straps were removed from the carotid (fresh weight) and the tissue was introduced in a glass tube. To this was added 1.8 mL of CHCl3/MeOH (2:1) and mixed overnight at 4° C. The carotid was then removed, dried and weighed and the organic solution (CHCl3/MeOH) was split in two glass tubes in equal volumes. For unesterified cholesterol (UC), 100 μL of β-sitosterol (internal standard) was added and the solution was dried. To this was added 200 μL EtOH for solubilisation of the sample and the sample was analyzed UC by HPLC. […] To this was added 200 μL EtOH for solubilisation of the sample and analysed TC by HPLC. The cholesterol concentration was determined by HPLC according to the method of Section 9.2.7. […]

[4] = mean of subjects, one month of induction therapy, 8 mg/kg
[5] = Infusion 1, preserved at Infusion 6

Compound | cytotoxicity (J774 macrophages) | benefit on vessel wall thickness ([1]; after an additional 5 months of maintenance therapy) | regression of carotid mean vessel wall thickness ([1]; homozygous ApoA-I deficiency patient) [%] | change of mean vessel wall thickness of the aorta [1, 4] [%] | change of mean vessel wall thickness of the carotid artery [1, 4] [%] | potency (plasma total cholesterol increase) relative to ETC-216 ([2]; CER-001 at 3 mg/kg) | plasma apolipoprotein A-I after IV administration [2, 5] | plasma phospholipids after IV administration [2, 5] | plasma total cholesterol after IV administration [2, 5] | slope ratio of phospholipids and ApoA-I dose response curves ([2]; in vivo) | decrease in total cholesterol contents in ligatured carotids ([3]; 2, 5 and 10 mg/kg) [%] | decrease in unesterified cholesterol in ligatured carotids ([3]; 2, 5 and 10 mg/kg) [%] | inhibition of plaque progression ([3]; 20 and 50 mg/kg)
OC[C@H]1O[C@@H]2O[C@H]3[C@H](O)[C@@H](O)[C@@H](O[C@H]4[C@H](O)[C@@H](O)[C@@H](O[C@H]5[C@H](O)[C@@H](O)[C@@H](O[C@H]6[C@H](O)[C@@H](O)[C@@H](O[C@H]7[C@H](O)[C@@H](O)[C@@H](O[C@H]8[C@H](O)[C@@H](O)[C@@H](O[C@H]1[C@H](O)[C@H]2O)O[C@@H]8CO)O[C@@H]7CO)O[C@@H]6CO)O[C@@H]5CO)O[C@@H]4CO)O[C@@H]3CO [β-cyclodextrin, reference compound] | cytotoxic, killing half of the cell population | – | – | – | – | – | – | – | – | – | – | – | –
CER-001: engineered recombinant human apolipoprotein A-I HDL with sphingomyelin and DPPG; protein-to-phospholipid ratio 1:2.7, 97% Sph and 3% DPPG | – | persistent and cumulative benefit | −17 | −4.6 | −6.4 | comparable to ETC-216 at 15 mg/kg | increases in a dose-dependent manner | increase in a dose dependent manner | increases in a dose-dependent manner | 2.8 | 50 | 25 | around 10%
